Test results reported in publication PMC5421785, “Citrullination only infrequently impacts peptide binding to HLA class II MHC” (PLoS ONE, 2017).
Square brackets hold non-standard residues; d marks the D form. Peptide text beside a SMILES is read from it. Cit = NC(=O)NCCC[C@H](N)C(=O)O

Experiments:
Experiment in all cases: HLA class II peptide binding, inhibition of radiolabeled peptide binding to purified MHC; for IC50 DRB1*01:01: competition with radiolabeled peptide (0.1–1 nM); for IC50 DRB1*04:01: competition with radiolabeled peptide (0.1–1 nM)
HLA-DRB1*01:01 = target: T1, HLA-DRB1*01:01 (Homo sapiens, UniProt P01903+P01911, A100R/D57E/F55L/F60I/F76Y/I96L/L162R/M171V/P40L/Q125E/R42F/V115G/Y59C); settings: read-out: IC50 DRB1*01:01; note: competition with radiolabeled peptide (0.1–1 nM)
T1 construct: EBV transformed homozygous cell lines were used as sources of MHC molecules; endogenous in cells; host or cells: EBV transformed homozygous cell lines

HLA-DRB1*04:01 = target: T2, HLA-DRB1*04:01 (Homo sapiens, UniProt P01903+P01911, A100K/A169T/F76Y/I96L/K127E/L162R/M171V/N62H/P40V/Q125Y/R42H/S133A/S149N/S66Y/V115G/V209L/W38E); settings: read-out: IC50 DRB1*04:01; note: competition with radiolabeled peptide (0.1–1 nM)
T2 construct: EBV transformed homozygous cell lines were used as sources of MHC molecules; endogenous in cells; host or cells: EBV transformed homozygous cell lines

DRB1*04:04 = DRB1*04:04 (Homo sapiens, UniProt P01903+P01911, A100R/A169T/F76Y/I96L/K127E/L162R/M171V/N62H/P40V/Q125Y/R42H/S133A/S149N/S66Y/V209L/W38E); settings: SE+, competition with radiolabeled peptide, two-day incubation, three or more independent experiments
DRB1*04:05 = DRB1*04:05 (Homo sapiens, UniProt P01903+P01911, A100R/A169T/D86S/F76Y/I96L/K127E/L162R/M171V/N62H/P40V/Q125Y/R42H/S133A/S149N/S66Y/V115G/V209L/W38E); settings: SE+, competition with radiolabeled peptide, two-day incubation, three or more independent experiments
DRB1*10:01 = DRB1*10:01 (Homo sapiens, UniProt P01903+P01911, A100R/A169T/D57E/F55L/F60V/F69Y/F76Y/I96L/L162R/M171V/P40V/Q260P/Q39E/Q99R/R195Q/R42F/S149N/S66Y/T210M/V115G/V67A/W38E/Y59R/Y61H); settings: SE+, competition with radiolabeled peptide, two-day incubation, three or more independent experiments
DRB1*04:02 = DRB1*04:02 (Homo sapiens, UniProt P01903+P01911, A100E/A169T/F76Y/K127E/L162R/M171V/N62H/P40V/Q125Y/Q99D/R42H/S133A/S149N/S66Y/V209L/W38E); settings: SE-, competition with radiolabeled peptide, two-day incubation, three or more independent experiments
DRB1*11:01 = DRB1*11:01 (Homo sapiens, UniProt P01903+P01911, A100R/A169T/A87E/I96F/K41T/L162R/M171V/P40S/Q125H/Q178H/Q39Y/Q99D/R42S/S66Y/T262R/V115G/W38E); settings: SE-, competition with radiolabeled peptide, two-day incubation, three or more independent experiments
DRB1*12:01 = DRB1*12:01 (Homo sapiens, UniProt P01903+P01911, A100R/A169T/D57E/D86V/F55L/H45Y/K41T/L162R/M171V/P40S/Q125H/Q178H/Q39Y/Q99D/R42G/S66L/T262R/V114A/V67L/W38E/Y59H/Y61H/Y89S); settings: SE-, competition with radiolabeled peptide, two-day incubation, three or more independent experiments
DRB1*13:02 = DRB1*13:02 (Homo sapiens, UniProt P01903+P01911, A100E/A169T/K41T/L162R/M171V/P40S/Q125H/Q178H/Q39Y/Q99D/R42S/S66N/T262R/V115G/W38E/Y61H); settings: SE-, competition with radiolabeled peptide, two-day incubation, three or more independent experiments
DRB1*15:01 = target: T3, DRB1*15:01 (Homo sapiens, UniProt P01903+P01911); settings: SE-, competition with radiolabeled peptide, two-day incubation, three or more independent experiments
T3 construct: EBV transformed homozygous cell lines were used as sources of MHC molecules; endogenous in cells; host or cells: EBV transformed homozygous cell lines

DRB1*16:02 = DRB1*16:02 (Homo sapiens, UniProt P01903+P01911, A100R/F76Y/I96L/Q99D/V115G); settings: SE-, competition with radiolabeled peptide, two-day incubation, three or more independent experiments
DRB1*03:01 = DRB1*03:01 (Homo sapiens, UniProt P01903+P01911, A100K/A102G/A103R/A169T/F55Y/I96L/K41T/L162R/M171V/P40S/Q125H/Q178H/Q39Y/R42S/S66N/T106N/T262R/W38E/Y61H); settings: Other DR, competition with radiolabeled peptide, two-day incubation, three or more independent experiments
DRB1*07:01 = DRB1*07:01 (Homo sapiens, UniProt P01903+P01911, A100R/A102G/A103Q/D57E/D86V/E43K/F76Y/K127E/L162R/M171V/P40G/Q125H/Q99D/R33Q/R42Y/R54Q/S133A/S66F/T210M/V115G/Y107V/Y59L/Y89S); settings: Other DR, competition with radiolabeled peptide, two-day incubation, three or more independent experiments
DRB1*08:02 = DRB1*08:02 (Homo sapiens, UniProt P01903+P01911, A100R/A103L/A169T/F76Y/H45Y/I96F/K41T/L162R/M171V/P40S/Q125H/Q178H/Q39Y/Q99D/R218S/R42G/S66Y/V115G/W38E); settings: Other DR, competition with radiolabeled peptide, two-day incubation, three or more independent experiments
DRB1*09:01 = DRB1*09:01 (Homo sapiens, UniProt P01903+P01911, A100R/A103E/D57H/D86V/F55Y/F60I/F76Y/I96F/K127E/L162R/M171V/P40D/Q125H/Q99R/R33Q/R42F/S133A/S66N/T210M/V115G/W38K/Y107V/Y59G/Y89S); settings: Other DR, competition with radiolabeled peptide, two-day incubation, three or more independent experiments
DRB3*01:01 = target: T4, DRB3*01:01 (Homo sapiens, UniProt P01903+P79483); settings: Other DR, competition with radiolabeled peptide, two-day incubation, three or more independent experiments
T4 construct: EBV transformed homozygous cell lines were used as sources of MHC molecules; endogenous in cells; host or cells: EBV transformed homozygous cell lines

DRB3*02:02 = DRB3*02:02 (Homo sapiens, UniProt P01903+P79483, A212P/D57E/F66Y/L67A/R103Q/R218S/R40L/S89Y/T80R/V86D/Y55F/Y59H); settings: Other DR, competition with radiolabeled peptide, two-day incubation, three or more independent experiments
DRB4*01:01 = target: T5, DRB4*01:01 (Homo sapiens, UniProt P01903+P13762, G164S); settings: Other DR, competition with radiolabeled peptide, two-day incubation, three or more independent experiments
T5 construct: EBV transformed homozygous cell lines were used as sources of MHC molecules; endogenous in cells; host or cells: EBV transformed homozygous cell lines

DRB5*01:01 = target: T6, DRB5*01:01 (Homo sapiens, UniProt P01903+Q30154); settings: Other DR, competition with radiolabeled peptide, two-day incubation, three or more independent experiments
T6 construct: EBV transformed homozygous cell lines were used as sources of MHC molecules; endogenous in cells; host or cells: EBV transformed homozygous cell lines

DPB1*04:01 = target: T7, DPB1*04:01 (Homo sapiens, UniProt P04440+P20036); settings: DP; purified MHC, competition with radiolabeled peptide, two-day incubation, three or more independent experiments
T7 construct: EBV transformed homozygous cell lines were used as sources of MHC molecules; endogenous in cells; host or cells: EBV transformed homozygous cell lines
T7 sequence (P04440 30-258): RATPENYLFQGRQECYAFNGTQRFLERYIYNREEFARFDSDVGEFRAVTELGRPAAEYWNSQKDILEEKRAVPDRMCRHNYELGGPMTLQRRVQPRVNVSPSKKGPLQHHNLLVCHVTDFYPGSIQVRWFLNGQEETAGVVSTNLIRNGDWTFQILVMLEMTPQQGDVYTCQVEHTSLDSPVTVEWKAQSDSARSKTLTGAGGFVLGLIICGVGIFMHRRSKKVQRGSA
T7 sequence (P20036 29-260 partner): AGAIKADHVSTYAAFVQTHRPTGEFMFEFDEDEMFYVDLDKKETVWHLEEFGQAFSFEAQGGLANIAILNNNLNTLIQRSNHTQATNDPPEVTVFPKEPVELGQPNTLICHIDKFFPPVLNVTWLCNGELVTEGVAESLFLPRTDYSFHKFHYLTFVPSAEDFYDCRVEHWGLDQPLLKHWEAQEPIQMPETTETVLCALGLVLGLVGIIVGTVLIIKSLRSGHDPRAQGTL

DQB1*03:01 = DQB1*03:01 (Homo sapiens, UniProt P01909+P01920); settings: DQ, competition with radiolabeled peptide, two-day incubation, three or more independent experiments
Chain of DQB1*03:01 (P01920 33-261, other chains not shown): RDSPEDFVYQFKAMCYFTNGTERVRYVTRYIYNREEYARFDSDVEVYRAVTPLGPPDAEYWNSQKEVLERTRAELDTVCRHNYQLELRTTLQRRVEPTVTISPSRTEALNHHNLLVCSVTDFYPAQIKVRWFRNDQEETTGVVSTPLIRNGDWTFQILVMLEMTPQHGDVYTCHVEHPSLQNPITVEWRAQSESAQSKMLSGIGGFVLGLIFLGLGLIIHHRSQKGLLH

## CC(C)C[C@H](NC(=O)[C@H](CC(C)C)NC(=O)[C@@H](NC(=O)[C@@H](N)C(C)C)C(C)C)C(=O)N[C@H](C(=O)N[C@@H](C)C(=O)N[C@H](C(=O)N[C@@H](CCC(=O)O)C(=O)NCC(=O)N[C@@H](CCCNC(N)=O)C(=O)N[C@H](C(=O)N[C@@H](CCCNC(=N)N)C(=O)N[C@H](C(=O)N[C@@H](CC(N)=O)C(=O)N[C@@H](CO)C(=O)N[C@@H](C)C(=O)N[C@@H](Cc1ccc(O)cc1)C(=O)N[C@@H](CCC(N)=O)C(=O)N[C@@H](CC(=O)O)C(=O)N[C@@H](CCCCN)C(=O)O)C(C)C)C(C)C)[C@@H](C)O)C(C)C [Aggrecan 84–103 Cit] (H-VVLLVATEG[Cit]VRVNSAYQDK-OH)
HLA-DRB1*01:01
  IC50: 3.86 µM
HLA-DRB1*04:01
  IC50: 0.827 µM
DRB1*04:04
  IC50: 0.854 µM
DRB1*04:05
  IC50: 0.047 µM
DRB1*10:01
  IC50: 2.42 µM
DRB1*04:02
  IC50: 4.26 µM
DRB1*11:01
  IC50: 29.7 µM
DRB1*12:01
  IC50: 11 µM
DRB1*13:02
  IC50: 0.552 µM
DRB1*15:01
  IC50: 7.6 µM
DRB1*16:02
  IC50: 22.8 µM
DRB1*03:01
  IC50: 11.1 µM
DRB1*07:01
  IC50: 8.47 µM
DRB1*08:02
  IC50: 17 µM
DRB1*09:01
  IC50: 28.5 µM
DRB3*01:01
  IC50: 18.9 µM
DRB3*02:02
  IC50: 0.051 µM
DRB4*01:01
  IC50: 2.34 µM
DRB5*01:01
  IC50: 0.74 µM
DPB1*04:01
  IC50: 16.2 µM
DQB1*03:01
  IC50: 0.382 µM

## CSCC[C@H](NC(=O)[C@H](Cc1ccc(O)cc1)NC(=O)[C@H](CCC(N)=O)NC(=O)[C@@H](N)CC(C)C)C(=O)N[C@@H](CCCNC(N)=O)C(=O)N[C@@H](C)C(=O)N[C@@H](CC(=O)O)C(=O)N[C@@H](CCC(N)=O)C(=O)N[C@@H](C)C(=O)N[C@@H](C)C(=O)NCC(=O)NCC(=O)N[C@@H](CC(C)C)C(=O)N[C@@H](CCCNC(=N)N)C(=O)O [Collagen II 1236–1249 Cit] (H-LQYM[Cit]ADQAAGGLR-OH)
HLA-DRB1*01:01
  IC50: 0.232 µM
HLA-DRB1*04:01
  IC50: 0.013 µM
DRB1*04:04
  IC50: 0.216 µM
DRB1*04:05
  IC50: 7.34 µM
DRB1*10:01
  IC50: 0.432 µM
DRB1*04:02
  IC50: 0.211 µM
DRB1*11:01
  IC50: > 30 µM
DRB1*12:01
  IC50: > 30 µM
DRB1*13:02
  IC50: 8.29 µM
DRB1*15:01
  IC50: 15.2 µM
DRB1*16:02
  IC50: > 30 µM
DRB1*03:01
  IC50: 0.072 µM
DRB1*07:01
  IC50: > 30 µM
DRB1*08:02
  IC50: 2.15 µM
DRB1*09:01
  IC50: 0.276 µM
DRB3*01:01
  IC50: 0.063 µM
DRB3*02:02
  IC50: 0.481 µM
DRB4*01:01
  IC50: 0.0073 µM
DRB5*01:01
  IC50: 10.2 µM
DPB1*04:01
  IC50: > 30 µM
DQB1*03:01
  IC50: 4.12 µM

## CC[C@H](C)[C@H](NC(=O)[C@H](CCCNC(N)=O)NC(=O)[C@H](CC(N)=O)NC(=O)[C@@H](NC(=O)[C@H](Cc1ccccc1)NC(=O)[C@H](CC(=O)O)NC(=O)[C@H](CCC(N)=O)NC(=O)[C@@H](N)CC(N)=O)[C@@H](C)O)C(=O)N[C@@H](CC(N)=O)C(=O)N[C@@H](CCCCN)C(=O)N[C@@H](CC(C)C)C(=O)N[C@@H](CCCCN)C(=O)N[C@@H](CC(N)=O)C(=O)N[C@@H](CO)C(=O)O [Fibrinogen 78–91 Cit] (H-NQDFTN[Cit]INKLKNS-OH)
HLA-DRB1*01:01
  IC50: 15.7 µM
HLA-DRB1*04:01
  IC50: 12.9 µM
DRB1*04:04
  IC50: 2.32 µM
DRB1*04:05
  IC50: 11.3 µM
DRB1*10:01
  IC50: 8.48 µM
DRB1*04:02
  IC50: > 30 µM
DRB1*11:01
  IC50: > 30 µM
DRB1*12:01
  IC50: 9.38 µM
DRB1*13:02
  IC50: > 30 µM
DRB1*15:01
  IC50: > 30 µM
DRB1*16:02
  IC50: 15.3 µM
DRB1*03:01
  IC50: > 30 µM
DRB1*07:01
  IC50: > 30 µM
DRB1*08:02
  IC50: 35.7 µM
DRB1*09:01
  IC50: > 30 µM
DRB3*01:01
  IC50: > 30 µM
DRB3*02:02
  IC50: > 30 µM
DRB4*01:01
  IC50: 12.7 µM
DRB5*01:01
  IC50: 0.0092 µM
DPB1*04:01
  IC50: > 30 µM
DQB1*03:01
  IC50: > 30 µM
